{
  "source": "patent US8535722B2",
  "about": "“Functionally graded biocompatible coating and coated implant” (priority 2005, dated 2013)",
  "origin": "cited, not measured here",
  "data": [
    {"smiles": "[Ag]", "note": "[Ag/Ag^+, silver]", "values": [
      {"measurement": "threshold of cytotoxicity in vivo", "result": 10, "unit": "ppm"}
    ]}
  ]
}
